Reference: patent US7858630B2, “D3 and 5-HT2A receptor modulators” (Hoffmann-La Roche Inc., priority 2008, dated 2010)

Experiments:
[1] = target: T1, human serotonin 5-HT2A receptor (Homo sapiens, UniProt P28223); test: Radioligand binding ([3H]-ketanserin) to membranes of HEK-293 EBNA cells expressing human 5-HT2A receptor; details: 1.1 nM [3H]-ketanserin, HEK-293 EBNA membranes, 1 h at RT
T1 construct: expressed in transfected cells; host or cells: HEK-293 EBNA cells, transient transfection; membrane preparation
Method in brief: (§1)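 Membranes from HEK-293 EBNA cells transiently transfected with the receptor were incubated 1 h at RT with ten test concentrations (10 μM–0.1 nM) and ~0.7 nM [3H]-spiperone (D2), 0.5 nM [3H]-spiperone (D3) or 1.1 nM [3H]-ketanserin (5-HT2A). Nonspecific binding was set with 10 μM spiperone, bound radioactivity was read by filtration and scintillation, and Ki was taken from IC50 via Cheng-Prusoff.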

[2] = target: T2, human dopamine D3 receptor (Homo sapiens, UniProt P35462); test: Radioligand binding ([3H]-spiperone) to membranes of HEK-293 EBNA cells expressing human D3 receptor; details: human D3, 0.5 nM [3H]-spiperone, HEK-293 EBNA membranes, 1 h at RT
T2 construct: expressed in transfected cells; host or cells: HEK-293 EBNA cells, transient transfection; membrane preparation
Method in brief: as §1

[3] = target: T3, human dopamine D2 receptor (Homo sapiens, UniProt P14416); test: Radioligand binding ([3H]-spiperone) to membranes of HEK-293 EBNA cells expressing human D2 receptor; details: human D2, 0.7 nM [3H]-spiperone, HEK-293 EBNA membranes, 1 h at RT
T3 construct: expressed in transfected cells; host or cells: HEK-293 EBNA cells, transient transfection; membrane preparation
Method in brief: as §1

T2 sequence (P35462 whole entry): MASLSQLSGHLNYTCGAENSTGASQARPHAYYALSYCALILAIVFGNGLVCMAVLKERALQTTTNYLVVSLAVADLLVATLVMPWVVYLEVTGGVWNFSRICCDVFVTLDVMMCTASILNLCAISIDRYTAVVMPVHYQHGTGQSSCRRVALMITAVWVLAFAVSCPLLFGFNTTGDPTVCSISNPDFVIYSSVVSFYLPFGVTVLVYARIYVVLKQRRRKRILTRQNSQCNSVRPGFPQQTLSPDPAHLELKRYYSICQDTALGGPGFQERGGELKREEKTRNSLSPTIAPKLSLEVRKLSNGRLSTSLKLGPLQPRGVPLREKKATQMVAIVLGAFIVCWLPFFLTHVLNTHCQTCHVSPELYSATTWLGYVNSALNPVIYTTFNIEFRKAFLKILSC
T3 sequence (P14416 whole entry): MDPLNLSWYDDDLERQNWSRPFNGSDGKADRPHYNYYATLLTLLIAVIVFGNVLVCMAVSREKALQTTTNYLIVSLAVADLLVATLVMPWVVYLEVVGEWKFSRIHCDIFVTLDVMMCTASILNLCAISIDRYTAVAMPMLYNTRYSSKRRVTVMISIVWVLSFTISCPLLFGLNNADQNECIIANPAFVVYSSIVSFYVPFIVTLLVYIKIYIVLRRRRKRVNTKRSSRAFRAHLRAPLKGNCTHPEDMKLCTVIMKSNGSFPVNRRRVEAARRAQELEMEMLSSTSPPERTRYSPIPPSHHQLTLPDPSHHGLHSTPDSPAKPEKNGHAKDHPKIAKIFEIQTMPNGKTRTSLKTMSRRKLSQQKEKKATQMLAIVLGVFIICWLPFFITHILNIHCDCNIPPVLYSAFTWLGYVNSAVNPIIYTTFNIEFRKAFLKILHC
T1 sequence (P28223 whole entry): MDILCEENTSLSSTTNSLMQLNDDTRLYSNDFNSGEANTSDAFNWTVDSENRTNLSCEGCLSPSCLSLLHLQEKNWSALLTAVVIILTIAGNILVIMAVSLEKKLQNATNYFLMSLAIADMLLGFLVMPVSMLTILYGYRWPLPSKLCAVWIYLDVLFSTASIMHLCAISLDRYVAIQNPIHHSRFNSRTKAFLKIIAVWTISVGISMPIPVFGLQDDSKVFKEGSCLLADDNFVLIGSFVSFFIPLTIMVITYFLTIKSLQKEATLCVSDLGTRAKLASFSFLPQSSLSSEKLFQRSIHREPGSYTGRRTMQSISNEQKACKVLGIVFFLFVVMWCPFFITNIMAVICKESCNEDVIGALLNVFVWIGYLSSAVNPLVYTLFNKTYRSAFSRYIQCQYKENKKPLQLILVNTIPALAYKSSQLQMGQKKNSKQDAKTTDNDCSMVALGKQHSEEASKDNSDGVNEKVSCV

Cc1cc(CC(=O)N[C@H]2CC[C@H](CCN3CCN(c4noc5cc(F)c(Cl)cc45)CC3)CC2)on1 [Example 82, N-trans-(4-{2-[4-(5-Chloro-6-fluoro-benzo[d]isoxazol-3-yl)-piperazin-1-yl]-ethyl}-cyclohexyl)-2-(3-methyl-isoxazol-5-yl)-acetamide]
Ki [1]: 2.99 nM | Ki [2]: 1.37 nM | Ki [3]: 11100 nM

O=C(N[C@H]1CC[C@H](CCN2CCN(c3noc4cc(F)c(Cl)cc34)CC2)CC1)C1CC(Cl)C1 (stereo partly drawn) [Example 83, 3-Chloro-cyclobutanecarboxylic acid N-trans-(4-{2-[4-(5-chloro-6-fluoro-benzo[d]isoxazol-3-yl)-piperazin-1-yl]-ethyl}-cyclohexyl)-amide]
Ki [1]: 8.55 nM | Ki [2]: 5.85 nM | Ki [3]: 11100 nM

O=C(N[C@H]1CC[C@H](CCN2CCN(c3noc4cc(F)c(Cl)cc34)CC2)CC1)c1ccc(Cl)s1 [Example 84, 5-Chloro-thiophene-2-carboxylic acid N-trans-(4-{2-[4-(5-chloro-6-fluoro-benzo[d]isoxazol-3-yl)-piperazin-1-yl]-ethyl}-cyclohexyl)-amide]
Ki [1]: 7.11 nM | Ki [2]: 2.94 nM | Ki [3]: 258 nM

COc1ccc(C(=O)N[C@H]2CC[C@H](CCN3CCN(c4noc5cc(F)c(Cl)cc45)CC3)CC2)s1 [Example 85, 5-Methoxy-thiophene-2-carboxylic acid N-trans-(4-{2-[4-(5-chloro-6-fluoro-benzo[d]isoxazol-3-yl)-piperazin-1-yl]-ethyl}-cyclohexyl)-amide]
Ki [1]: 7.47 nM | Ki [2]: 8.2 nM | Ki [3]: 368 nM

CCC(=O)N[C@H]1CC[C@H](CCN2CCN(c3noc4cc(F)c(Cl)cc34)CC2)CC1 [Example 86, N-trans-(4-{2-[4-(5-Chloro-6-fluoro-benzo[d]isoxazol-3-yl)-piperazin-1-yl]-ethyl}-cyclohexyl)-propionamide]
Ki [1]: 9.53 nM | Ki [2]: 5.16 nM | Ki [3]: 250 nM

O=C(CO)N[C@H]1CC[C@H](CCN2CCN(c3noc4cc(F)c(Cl)cc34)CC2)CC1 [Example 87, N-trans-(4-{2-[4-(5-Chloro-6-fluoro-benzo[d]isoxazol-3-yl)-piperazin-1-yl]-ethyl}-cyclohexyl)-2-hydroxy-acetamide]
Ki [1]: 8.6 nM | Ki [2]: 9.97 nM | Ki [3]: 401 nM

CO[C@H]1CC[C@H](CC(=O)N[C@H]2CC[C@H](CCN3CCN(c4noc5cc(F)c(Cl)cc45)CC3)CC2)CC1 [Example 88, N-trans-(4-{2-[4-(5-Chloro-6-fluoro-benzo[d]isoxazol-3-yl)-piperazin-1-yl]-ethyl}-cyclohexyl)-2-trans-(4-methoxy-cyclohexyl)-acetamide]
Ki [1]: 16.7 nM | Ki [2]: 31.1 nM | Ki [3]: 11200 nM

CS(=O)(=O)CC(=O)N[C@H]1CC[C@H](CCN2CCN(c3noc4cc(F)c(Cl)cc34)CC2)CC1 [Example 89, N-trans-(4-{2-[4-(5-Chloro-6-fluoro-benzo[d]isoxazol-3-yl)-piperazin-1-yl]-ethyl}-cyclohexyl)-2-methanesulfonyl-acetamide]
Ki [1]: 2.89 nM | Ki [2]: 5.72 nM | Ki [3]: 11200 nM

CS(=O)(=O)CCC(=O)N[C@H]1CC[C@H](CCN2CCN(c3noc4cc(F)c(Cl)cc34)CC2)CC1 [Example 90, N-trans-(4-{2-[4-(5-Chloro-6-fluoro-benzo[d]isoxazol-3-yl)-piperazin-1-yl]-ethyl}-cyclohexyl)-3-methanesulfonyl-propionamide]
Ki [1]: 7.64 nM | Ki [2]: 14.3 nM | Ki [3]: 1190 nM

COC(=O)N[C@H]1CC[C@H](CCN2CCN(c3noc4cc(F)c(Cl)cc34)CC2)CC1 [Example 91, N-trans-(4-{2-[4-(5-Chloro-6-fluoro-benzo[d]isoxazol-3-yl)-piperazin-1-yl]-ethyl}-cyclohexyl)-carbamic acid methyl ester]
Ki [1]: 1.84 nM | Ki [2]: 0.58 nM | Ki [3]: 197 nM

O=C(N[C@H]1CC[C@H](CCN2CCN(c3noc4cc(F)c(Cl)cc34)CC2)CC1)C1CCC1 [Example 92, Cyclobutanecarboxylic acid N-trans-(4-{2-[4-(5-chloro-6-fluoro-benzo[d]isoxazol-3-yl)-piperazin-1-yl]-ethyl}-cyclohexyl)-amide]
Ki [1]: 11.6 nM | Ki [2]: 12.4 nM | Ki [3]: 4070 nM

COCCC(=O)N[C@H]1CC[C@H](CCN2CCN(c3noc4cc(Cl)c(Cl)cc34)CC2)CC1 [Example 94, N-trans-(4-{2-[4-(5,6-Dichloro-benzo[d]isoxazol-3-yl)-piperazin-1-yl]-ethyl}-cyclohexyl)-3-methoxy-propionamide]
Ki [1]: 26.3 nM | Ki [2]: 2.23 nM | Ki [3]: 1970 nM

O=C(N[C@H]1CC[C@H](CCN2CCN(c3noc4cc(Cl)c(Cl)cc34)CC2)CC1)C1CCOCC1 [Example 95, Tetrahydro-pyran-4-carboxylic acid N-trans-(4-{2-[4-(5,6-dichloro-benzo[d]isoxazol-3-yl)-piperazin-1-yl]-ethyl}-cyclohexyl)-amide]
Ki [1]: 49.9 nM | Ki [2]: 117 nM | Ki [3]: 7950 nM

CO[C@H]1CC[C@H](CC(=O)N[C@H]2CC[C@H](CCN3CCN(c4noc5cc(Cl)c(Cl)cc45)CC3)CC2)CC1 [Example 96, N-trans-(4-{2-[4-(5,6-Dichloro-benzo[d]isoxazol-3-yl)-piperazin-1-yl]-ethyl}-cyclohexyl)-2-trans-(4-methoxy-cyclohexyl)-acetamide]
Ki [1]: 51.4 nM | Ki [2]: 35.4 nM | Ki [3]: 11600 nM

O=C(CC1CCOCC1)N[C@H]1CC[C@H](CCN2CCN(c3noc4cc(Cl)c(Cl)cc34)CC2)CC1 [Example 97, N-trans-(4-{2-[4-(5,6-Dichloro-benzo[d]isoxazol-3-yl)-piperazin-1-yl]-ethyl}-cyclohexyl)-2-(tetrahydro-pyran-4-yl)-acetamide]
Ki [1]: 30.7 nM | Ki [2]: 9.45 nM | Ki [3]: 11600 nM

COCCC(=O)N[C@H]1CC[C@H](CCN2CCN(c3noc4cc(C)ccc34)CC2)CC1 [Example 98, 3-Methoxy-N-trans-(4-{2-[4-(6-methyl-benzo[d]isoxazol-3-yl)-piperazin-1-yl]-ethyl}-cyclohexyl)-propionamide]
Ki [1]: 5.21 nM | Ki [2]: 7.42 nM | Ki [3]: 222 nM

CCC(=O)N[C@H]1CC[C@H](CCN2CCN(c3noc4cc(C)ccc34)CC2)CC1 [Example 99, N-trans-(4-{2-[4-(6-Methyl-benzo[d]isoxazol-3-yl)-piperazin-1-yl]-ethyl}-cyclohexyl)-propionamide]
Ki [1]: 5.92 nM | Ki [2]: 5.8 nM | Ki [3]: 207 nM

CO[C@H]1CC[C@H](CC(=O)N[C@H]2CC[C@H](CCN3CCN(c4noc5cc(C)ccc45)CC3)CC2)CC1 [Example 100, 2-trans-(4-Methoxy-cyclohexyl)-N-trans-(4-{2-[4-(6-methyl-benzo[d]isoxazol-3-yl)-piperazin-1-yl]-ethyl}-cyclohexyl)-acetamide]
Ki [1]: 5.3 nM | Ki [2]: 17.7 nM | Ki [3]: 494 nM

Cc1ccc2c(N3CCN(CC[C@H]4CC[C@H](NC(=O)CC5OCCCO5)CC4)CC3)noc2c1 [Example 101, 2-[1,3]Dioxan-2-yl-N-trans-(4-{2-[4-(6-methyl-benzo[d]isoxazol-3-yl)-piperazin-1-yl]-ethyl}-cyclohexyl)-acetamide]
Ki [1]: 5.15 nM | Ki [2]: 8.33 nM | Ki [3]: 384 nM

Cc1ccc2c(N3CCN(CC[C@H]4CC[C@H](NC(=O)CC5COCCO5)CC4)CC3)noc2c1 (stereo partly drawn) [Example 102, 2-[1,4]Dioxan-2-yl-N-trans-(4-{2-[4-(6-methyl-benzo[d]isoxazol-3-yl)-piperazin-1-yl]-ethyl}-cyclohexyl)-acetamide]
Ki [1]: 2.65 nM | Ki [2]: 13.9 nM | Ki [3]: 333 nM

COC(CC(=O)N[C@H]1CC[C@H](CCN2CCN(c3noc4cc(C)ccc34)CC2)CC1)OC [Example 103, 3,3-Dimethoxy-N-trans-(4-{2-[4-(6-methyl-benzo[d]isoxazol-3-yl)-piperazin-1-yl]-ethyl}-cyclohexyl)-propionamide]
Ki [1]: 2.3 nM | Ki [2]: 6.96 nM | Ki [3]: 206 nM

COCCC(=O)N[C@H]1CC[C@H](CCN2CCN(c3noc4ccc(C)cc34)CC2)CC1 [Example 104, 3-Methoxy-N-trans-(4-{2-[4-(5-methyl-benzo[d]isoxazol-3-yl)-piperazin-1-yl]-ethyl}-cyclohexyl)-propionamide]
Ki [1]: 20.9 nM | Ki [2]: 2.59 nM | Ki [3]: 554 nM

Cc1ccc2c(N3CCN(CC[C@H]4CC[C@H](NC(=O)CS(C)(=O)=O)CC4)CC3)noc2c1 [Example 105, 2-Methanesulfonyl-N-trans-(4-{2-[4-(6-methyl-benzo[d]isoxazol-3-yl)-piperazin-1-yl]-ethyl}-cyclohexyl)-acetamide]
Ki [1]: 4 nM | Ki [2]: 5 nM | Ki [3]: 170 nM

CC(=O)N[C@H]1CC[C@H](CCN2CCN(c3noc4cc(F)c(C)cc34)CC2)CC1 [Example 106, N-trans-(4-{2-[4-(6-Fluoro-5-methyl-benzo[d]isoxazol-3-yl)-piperazin-1-yl]-ethyl}-cyclohexyl)-acetamide]
Ki [1]: 31.9 nM | Ki [2]: 9.04 nM | Ki [3]: 2380 nM

COCC(=O)N[C@H]1CC[C@H](CCN2CCN(c3noc4cc(F)c(C)cc34)CC2)CC1 [Example 107, N-trans-(4-{2-[4-(6-Fluoro-5-methyl-benzo[d]isoxazol-3-yl)-piperazin-1-yl]-ethyl}-cyclohexyl)-2-methoxy-acetamide]
Ki [1]: 11.2 nM | Ki [2]: 20 nM | Ki [3]: 674 nM
